Results reported in ChEMBL document CHEMBL5465560, “Selectivity Literature for EUbOPEN Chemogenomic Library” (2024).
Blank lines part the entries; values can stand above or below the molecule they belong to.

Experiments:
[1] = molecular target: Calcium/calmodulin-dependent protein kinase type II subunit alpha (Homo sapiens, UniProt Q9UQM7); settings: at 10 µM
[2] = molecular target: T1, Ephrin type-A receptor 6 (Homo sapiens) (UniProt Q9UF33); settings: at 10 µM
T1 sequence (whole entry): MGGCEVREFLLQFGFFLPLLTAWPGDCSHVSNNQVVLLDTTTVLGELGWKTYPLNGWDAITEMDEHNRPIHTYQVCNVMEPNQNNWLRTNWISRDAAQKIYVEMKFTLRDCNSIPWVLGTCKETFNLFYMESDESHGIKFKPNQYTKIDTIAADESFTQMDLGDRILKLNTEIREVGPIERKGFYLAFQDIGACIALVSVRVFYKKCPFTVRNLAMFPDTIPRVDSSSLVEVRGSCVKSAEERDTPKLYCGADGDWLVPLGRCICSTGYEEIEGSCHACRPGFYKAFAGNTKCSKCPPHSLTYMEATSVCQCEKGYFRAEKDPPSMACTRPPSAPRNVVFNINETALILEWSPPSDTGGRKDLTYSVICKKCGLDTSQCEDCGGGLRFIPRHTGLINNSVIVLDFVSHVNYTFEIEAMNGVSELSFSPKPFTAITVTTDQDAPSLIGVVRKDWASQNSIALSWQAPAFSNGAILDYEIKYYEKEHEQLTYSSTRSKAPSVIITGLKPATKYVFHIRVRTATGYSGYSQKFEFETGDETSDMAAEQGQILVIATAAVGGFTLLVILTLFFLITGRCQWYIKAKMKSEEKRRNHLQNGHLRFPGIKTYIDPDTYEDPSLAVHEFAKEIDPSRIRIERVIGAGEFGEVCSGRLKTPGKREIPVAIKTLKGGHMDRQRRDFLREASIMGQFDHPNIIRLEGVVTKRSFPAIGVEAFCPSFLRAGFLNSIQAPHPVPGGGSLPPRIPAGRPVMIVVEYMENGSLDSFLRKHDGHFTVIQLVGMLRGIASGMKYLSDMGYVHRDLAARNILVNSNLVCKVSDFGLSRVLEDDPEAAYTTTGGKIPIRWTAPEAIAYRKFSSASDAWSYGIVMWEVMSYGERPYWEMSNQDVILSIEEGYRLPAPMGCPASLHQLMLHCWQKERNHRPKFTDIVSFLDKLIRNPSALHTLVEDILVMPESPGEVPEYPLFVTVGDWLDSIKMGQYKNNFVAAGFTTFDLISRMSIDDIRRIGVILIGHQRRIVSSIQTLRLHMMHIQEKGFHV

[3] = molecular target: Protein kinase C eta type (Homo sapiens) (UniProt P24723); settings: at 10 µM
Chain of Protein kinase C eta type (Homo sapiens) (P24723 whole entry): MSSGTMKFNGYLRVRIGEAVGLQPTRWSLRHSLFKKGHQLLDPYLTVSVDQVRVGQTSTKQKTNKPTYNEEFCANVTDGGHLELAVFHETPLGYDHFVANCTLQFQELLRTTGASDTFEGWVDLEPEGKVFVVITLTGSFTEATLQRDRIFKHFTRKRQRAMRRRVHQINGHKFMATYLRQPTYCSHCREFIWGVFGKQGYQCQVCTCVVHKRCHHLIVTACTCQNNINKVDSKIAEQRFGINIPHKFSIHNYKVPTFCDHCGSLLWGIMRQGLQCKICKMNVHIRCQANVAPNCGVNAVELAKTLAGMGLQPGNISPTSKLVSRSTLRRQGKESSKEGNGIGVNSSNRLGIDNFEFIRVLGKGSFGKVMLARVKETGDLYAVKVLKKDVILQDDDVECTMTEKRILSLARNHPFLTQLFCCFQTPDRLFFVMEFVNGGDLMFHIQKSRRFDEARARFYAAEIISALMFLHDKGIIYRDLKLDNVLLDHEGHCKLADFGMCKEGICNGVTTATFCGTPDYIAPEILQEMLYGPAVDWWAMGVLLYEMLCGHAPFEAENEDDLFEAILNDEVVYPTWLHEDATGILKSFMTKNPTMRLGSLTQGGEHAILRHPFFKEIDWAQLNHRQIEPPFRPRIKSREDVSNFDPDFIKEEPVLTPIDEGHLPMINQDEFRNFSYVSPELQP

[4] = molecular target: 5-hydroxytryptamine receptor 2A (Homo sapiens, UniProt P28223); test: Selectivity interaction (Panel of kinases, GPCRs, ion channels and transporters (enzymatic assay)) EUB0000266bCl HTR2A
Chain of 5-hydroxytryptamine receptor 2A (P28223 whole entry): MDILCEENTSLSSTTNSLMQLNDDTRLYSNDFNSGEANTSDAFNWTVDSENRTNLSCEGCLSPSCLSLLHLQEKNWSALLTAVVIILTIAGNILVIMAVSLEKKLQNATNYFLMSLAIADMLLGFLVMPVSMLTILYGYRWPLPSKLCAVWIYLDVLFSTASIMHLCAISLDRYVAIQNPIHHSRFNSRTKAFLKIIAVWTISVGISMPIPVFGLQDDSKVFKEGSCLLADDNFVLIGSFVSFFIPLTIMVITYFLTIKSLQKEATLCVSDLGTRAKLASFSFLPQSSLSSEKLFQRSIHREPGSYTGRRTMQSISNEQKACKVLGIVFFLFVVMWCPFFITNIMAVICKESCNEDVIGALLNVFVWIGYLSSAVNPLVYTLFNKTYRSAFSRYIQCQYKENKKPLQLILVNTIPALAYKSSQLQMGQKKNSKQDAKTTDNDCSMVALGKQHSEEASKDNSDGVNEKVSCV

[5] = molecular target: Insulin-like growth factor 1 receptor (Homo sapiens, UniProt P08069); test: Selectivity interaction (Kinase panel (33PanQinase(R) Activity Assay)) EUB0000877a IGF1R
Chain of Insulin-like growth factor 1 receptor (P08069 31-736 limits assumed): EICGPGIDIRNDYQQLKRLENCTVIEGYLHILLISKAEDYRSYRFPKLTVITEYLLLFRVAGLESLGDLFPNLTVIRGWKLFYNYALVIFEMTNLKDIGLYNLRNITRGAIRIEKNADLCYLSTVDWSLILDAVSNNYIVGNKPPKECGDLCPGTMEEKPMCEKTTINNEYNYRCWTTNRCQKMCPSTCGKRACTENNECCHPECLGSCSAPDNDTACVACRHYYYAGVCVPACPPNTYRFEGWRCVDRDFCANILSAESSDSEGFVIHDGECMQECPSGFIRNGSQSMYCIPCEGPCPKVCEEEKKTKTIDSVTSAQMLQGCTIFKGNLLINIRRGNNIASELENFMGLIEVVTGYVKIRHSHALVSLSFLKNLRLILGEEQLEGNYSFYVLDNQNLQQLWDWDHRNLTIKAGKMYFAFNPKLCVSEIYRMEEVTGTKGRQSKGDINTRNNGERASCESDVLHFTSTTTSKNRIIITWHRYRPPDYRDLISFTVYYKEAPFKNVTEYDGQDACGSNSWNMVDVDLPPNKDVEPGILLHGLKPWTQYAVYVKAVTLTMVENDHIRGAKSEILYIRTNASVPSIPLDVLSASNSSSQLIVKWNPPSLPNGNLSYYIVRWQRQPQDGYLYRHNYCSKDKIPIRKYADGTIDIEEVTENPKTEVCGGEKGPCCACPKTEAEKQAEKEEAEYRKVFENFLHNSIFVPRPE
Chain of Insulin-like growth factor 1 receptor (P08069 741-1367 limits assumed): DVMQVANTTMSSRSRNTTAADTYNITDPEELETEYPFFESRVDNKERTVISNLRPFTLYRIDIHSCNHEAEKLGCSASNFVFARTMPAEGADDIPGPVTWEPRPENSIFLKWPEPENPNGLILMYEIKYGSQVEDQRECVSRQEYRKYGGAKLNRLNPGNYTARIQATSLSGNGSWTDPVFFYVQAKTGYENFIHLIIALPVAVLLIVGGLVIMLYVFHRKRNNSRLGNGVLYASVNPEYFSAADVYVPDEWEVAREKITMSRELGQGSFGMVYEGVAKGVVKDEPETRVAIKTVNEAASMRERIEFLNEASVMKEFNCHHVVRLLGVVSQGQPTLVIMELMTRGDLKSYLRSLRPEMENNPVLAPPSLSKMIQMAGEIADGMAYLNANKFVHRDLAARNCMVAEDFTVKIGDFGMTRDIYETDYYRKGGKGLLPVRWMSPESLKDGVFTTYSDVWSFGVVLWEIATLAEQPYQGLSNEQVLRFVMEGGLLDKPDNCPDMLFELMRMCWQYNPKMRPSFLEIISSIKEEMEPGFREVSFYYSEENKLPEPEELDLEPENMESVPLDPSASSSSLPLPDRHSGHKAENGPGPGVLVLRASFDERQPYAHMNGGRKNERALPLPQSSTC

[6] = molecular target: Tyrosine-protein kinase Lck (Homo sapiens, UniProt P06239); test: Selectivity interaction (Kinase panel (33PanQinase(R) Activity Assay)) EUB0000877a LCK
Chain of Tyrosine-protein kinase Lck (P06239 whole entry): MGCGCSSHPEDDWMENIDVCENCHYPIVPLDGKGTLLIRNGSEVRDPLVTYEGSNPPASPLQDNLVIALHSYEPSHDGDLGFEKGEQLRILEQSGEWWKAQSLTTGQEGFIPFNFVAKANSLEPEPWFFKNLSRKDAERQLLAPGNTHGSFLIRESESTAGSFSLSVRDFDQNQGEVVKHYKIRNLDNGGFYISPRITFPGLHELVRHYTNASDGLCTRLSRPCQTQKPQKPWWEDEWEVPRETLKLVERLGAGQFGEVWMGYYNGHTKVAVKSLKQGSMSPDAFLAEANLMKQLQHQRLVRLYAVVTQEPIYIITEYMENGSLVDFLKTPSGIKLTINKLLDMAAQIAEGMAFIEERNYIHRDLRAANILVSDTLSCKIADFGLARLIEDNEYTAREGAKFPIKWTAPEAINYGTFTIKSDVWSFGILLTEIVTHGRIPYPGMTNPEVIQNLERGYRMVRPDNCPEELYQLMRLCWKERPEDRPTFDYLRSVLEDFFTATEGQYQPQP

[7] = molecular target: T2, Serine/threonine-protein kinase DCLK2 (Homo sapiens) (UniProt Q8N568); test: Selectivity interaction (KinomeScan (DiscoverX)) EUB0000618a DCLK2; settings: at 10 µM
T2 sequence (whole entry): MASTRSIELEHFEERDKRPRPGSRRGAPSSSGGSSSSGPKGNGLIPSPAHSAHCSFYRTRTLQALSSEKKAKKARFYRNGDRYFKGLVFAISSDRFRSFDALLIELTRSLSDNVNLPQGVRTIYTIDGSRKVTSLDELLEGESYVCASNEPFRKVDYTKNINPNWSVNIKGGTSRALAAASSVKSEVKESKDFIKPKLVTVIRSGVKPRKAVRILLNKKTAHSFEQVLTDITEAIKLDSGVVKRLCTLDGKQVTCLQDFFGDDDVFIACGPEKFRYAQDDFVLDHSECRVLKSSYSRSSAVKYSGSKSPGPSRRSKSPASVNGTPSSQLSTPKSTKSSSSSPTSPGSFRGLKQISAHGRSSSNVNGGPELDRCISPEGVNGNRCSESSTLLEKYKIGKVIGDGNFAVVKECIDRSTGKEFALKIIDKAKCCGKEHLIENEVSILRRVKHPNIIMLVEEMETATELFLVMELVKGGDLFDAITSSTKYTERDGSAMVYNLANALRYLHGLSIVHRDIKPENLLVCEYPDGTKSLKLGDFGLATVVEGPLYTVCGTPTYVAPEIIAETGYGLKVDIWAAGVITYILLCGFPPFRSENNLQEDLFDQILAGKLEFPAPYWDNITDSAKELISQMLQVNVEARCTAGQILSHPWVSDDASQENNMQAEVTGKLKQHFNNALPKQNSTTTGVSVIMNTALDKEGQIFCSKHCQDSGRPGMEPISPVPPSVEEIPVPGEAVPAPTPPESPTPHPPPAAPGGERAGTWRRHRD

[8] = molecular target: T3, Protein kinase C zeta type (Homo sapiens) (UniProt Q05513); test: Selectivity interaction (SelectScreen profiling (Invitrogen)) EUB0000607a PRKCZ; settings: at 2 µM
T3 sequence (whole entry): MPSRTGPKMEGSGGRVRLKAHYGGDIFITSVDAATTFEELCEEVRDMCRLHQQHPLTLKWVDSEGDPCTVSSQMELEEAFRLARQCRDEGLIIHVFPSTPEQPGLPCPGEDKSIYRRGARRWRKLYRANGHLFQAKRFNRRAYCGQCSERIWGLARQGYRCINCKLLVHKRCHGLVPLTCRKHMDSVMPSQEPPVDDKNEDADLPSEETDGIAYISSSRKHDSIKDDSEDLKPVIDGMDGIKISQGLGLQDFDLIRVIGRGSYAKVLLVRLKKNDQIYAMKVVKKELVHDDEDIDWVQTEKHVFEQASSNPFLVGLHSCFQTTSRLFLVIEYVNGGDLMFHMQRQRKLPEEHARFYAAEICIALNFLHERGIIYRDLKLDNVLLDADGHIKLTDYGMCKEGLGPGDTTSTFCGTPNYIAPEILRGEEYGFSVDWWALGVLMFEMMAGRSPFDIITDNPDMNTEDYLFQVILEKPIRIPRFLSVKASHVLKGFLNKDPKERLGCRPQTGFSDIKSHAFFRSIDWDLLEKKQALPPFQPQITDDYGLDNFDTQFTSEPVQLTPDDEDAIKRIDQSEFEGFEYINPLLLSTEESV

[9] = test system: Epidermal growth factor receptor (Homo sapiens), P00533 [UNDEFINED MUTATION]; test: Selectivity interaction (KinomeScan (DiscoverX)) EUB0000666a EGFR; settings: at 10 µM
Chain of Epidermal growth factor receptor (Homo sapiens), P00533 [UNDEFINED MUTATION] (P00533 whole entry, looked up, change not shown): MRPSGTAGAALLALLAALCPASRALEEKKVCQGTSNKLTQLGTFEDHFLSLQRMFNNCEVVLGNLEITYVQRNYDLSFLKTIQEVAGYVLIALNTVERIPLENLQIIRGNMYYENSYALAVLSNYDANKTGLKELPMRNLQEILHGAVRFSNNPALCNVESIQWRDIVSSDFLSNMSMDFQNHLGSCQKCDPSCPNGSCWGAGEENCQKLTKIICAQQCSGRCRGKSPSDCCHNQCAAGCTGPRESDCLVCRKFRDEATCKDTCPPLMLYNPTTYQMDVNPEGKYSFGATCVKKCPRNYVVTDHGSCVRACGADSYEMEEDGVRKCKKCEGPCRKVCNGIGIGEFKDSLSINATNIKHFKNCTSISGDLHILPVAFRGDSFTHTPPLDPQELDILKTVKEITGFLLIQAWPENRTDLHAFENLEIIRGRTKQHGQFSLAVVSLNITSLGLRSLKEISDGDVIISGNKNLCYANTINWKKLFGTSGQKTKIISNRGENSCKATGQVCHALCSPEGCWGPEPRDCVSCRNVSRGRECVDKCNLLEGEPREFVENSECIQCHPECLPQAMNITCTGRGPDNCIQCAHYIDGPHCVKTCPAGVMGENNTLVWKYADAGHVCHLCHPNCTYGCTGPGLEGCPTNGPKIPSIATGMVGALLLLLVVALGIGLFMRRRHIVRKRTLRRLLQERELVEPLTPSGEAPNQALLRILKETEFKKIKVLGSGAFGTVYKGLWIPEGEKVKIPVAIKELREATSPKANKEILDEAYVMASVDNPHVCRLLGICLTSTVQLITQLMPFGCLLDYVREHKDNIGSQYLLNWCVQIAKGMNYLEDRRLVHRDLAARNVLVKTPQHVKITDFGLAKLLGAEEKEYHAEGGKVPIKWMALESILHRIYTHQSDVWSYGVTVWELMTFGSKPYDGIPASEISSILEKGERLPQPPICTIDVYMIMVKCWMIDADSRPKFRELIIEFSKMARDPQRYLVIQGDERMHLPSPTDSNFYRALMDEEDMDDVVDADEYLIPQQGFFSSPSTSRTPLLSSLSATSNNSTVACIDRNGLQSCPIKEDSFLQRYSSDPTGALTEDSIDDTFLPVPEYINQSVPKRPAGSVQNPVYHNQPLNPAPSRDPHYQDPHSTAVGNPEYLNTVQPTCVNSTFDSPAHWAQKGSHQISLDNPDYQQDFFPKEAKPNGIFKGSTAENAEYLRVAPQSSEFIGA

Chain of Calcium/calmodulin-dependent protein kinase type II subunit alpha (Q9UQM7 whole entry): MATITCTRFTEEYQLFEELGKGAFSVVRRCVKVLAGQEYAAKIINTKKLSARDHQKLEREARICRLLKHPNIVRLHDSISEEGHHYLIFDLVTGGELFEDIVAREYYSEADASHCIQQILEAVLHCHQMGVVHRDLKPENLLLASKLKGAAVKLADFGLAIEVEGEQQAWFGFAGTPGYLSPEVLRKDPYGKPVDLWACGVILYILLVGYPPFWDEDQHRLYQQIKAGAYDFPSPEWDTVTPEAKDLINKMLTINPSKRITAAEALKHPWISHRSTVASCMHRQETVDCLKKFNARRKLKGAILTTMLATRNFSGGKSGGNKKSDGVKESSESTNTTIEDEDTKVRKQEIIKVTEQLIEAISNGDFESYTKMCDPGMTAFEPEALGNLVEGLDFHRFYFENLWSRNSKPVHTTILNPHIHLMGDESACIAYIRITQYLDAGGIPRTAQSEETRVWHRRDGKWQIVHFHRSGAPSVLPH

Structure (SMILES): Cc1cc([C@@H](C)Nc2ccccc2C(=O)O)c2nc(N3CCOCC3)cc(=O)n2c1 [AZD-6482]
- % of control [1]: 75%
- % of control [2]: 100%
- % of control [3]: 82%

- pXC50 [4]: < 4.4 M
Structure (SMILES): CCn1c(-c2nc3cc(C(=O)N4CCCC(N)C4)ccc3n2C)cc2ccccc21 (centres undefined)

- IC50 [5]: > 10 µM
- IC50 [6]: > 10 µM
Structure (SMILES): CCC(=O)N1CC[C@H](Nc2ncnc3c2CN(c2cnc(OC)c(C(F)(F)F)c2)CC3)C1 [LENIOLISIB]

Structure (SMILES): O[C@H]1CC[C@H](Nc2ncc3nc(Nc4c(F)cc(F)cc4F)n([C@H]4CCOC4)c3n2)CC1
- % of control [7]: 100%

Structure (SMILES): CNC(=O)Nc1ccc(-c2nc(N3CC4CCC(C3)O4)c3cnn(C4CCC5(CC4)OCCO5)c3n2)cc1
- % of inhibition [8]: 8%

Structure (SMILES): O=C(NOC[C@H](O)CO)c1ccc(F)c(F)c1Nc1ccc(I)cc1F
- % of control [9]: 70%
